Results from patent publication US10487082B2, “S1PR2 antagonists and uses therefor” (DALHOUSIE UNIVERSITY, priority 2015, dated 2019).
“Also recorded” adds a separate entry of the source.

Columns and labels:
S1PR2 = S1PR2 (Homo sapiens, UniProt O95136); details: cited from earlier work
Fzd4−/− mice = experiment: Retinal vasculature in Fzd4−/− mouse model of FEVR (flat-mounted retinas, iso-lectin B4 staining, confocal microscopy); type: in vivo; details: 0.5 mg/kg intraperitoneally every second day from P7 to P25, retinas at P25
Description: FIG. 7 illustrates that treatment of Fzd4^−/− mice with the S1PR2 antagonist JTE-013 ameliorates the FEVR phenotype. Fzd4^−/− mice were injected with 0.5 mg/kg JTE-013 intraperitoneally every second day from P7 to P25. Retinas were flat mounted at P25 and the vasculature visualized by confocal microscopy subsequent to staining with iso-lectin B4 AlexaFluor 594.
Fzd4^−/− mice were injected with 0.5 mg/kg JTE-013 intraperitoneally every second day from P7 to P25. Using standard protocols, retinas were flat mounted at P25 and the vasculature visualized by confocal microscopy subsequent to staining with iso-lectin B4 AlexaFluor 594. (Vascular development in the retina and inner ear: control by Norrin and Frizzled-4, a high-affinity ligand-receptor pair. Xu Q, Wang Y, Dabdoub A, Smallwood P M, Williams J, Woods C, Kelley M W, Jiang L, Tasman W, Zhang K, Nathans J. Cell 116, 883-95 (2004).)

Sequence of S1PR2 (O95136 whole entry): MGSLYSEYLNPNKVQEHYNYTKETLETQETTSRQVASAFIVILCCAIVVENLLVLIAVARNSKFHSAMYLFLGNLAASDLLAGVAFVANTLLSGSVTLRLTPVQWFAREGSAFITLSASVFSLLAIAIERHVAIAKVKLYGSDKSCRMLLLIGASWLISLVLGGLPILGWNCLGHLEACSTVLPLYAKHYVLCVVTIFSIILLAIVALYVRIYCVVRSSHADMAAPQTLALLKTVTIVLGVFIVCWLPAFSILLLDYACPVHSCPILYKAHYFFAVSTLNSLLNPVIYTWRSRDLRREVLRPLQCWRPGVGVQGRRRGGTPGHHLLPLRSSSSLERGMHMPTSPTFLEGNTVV

Cc1nn(C)c2nc(NNC(=O)Nc3cc(Cl)nc(Cl)c3)cc(C(C)C)c12 [JTE-013, 1-(2,6-dichloro-4-pyridyl)-3-[(4-isopropyl-1,3-dimethyl-pyrazolo[3,4-b]pyridin-6-yl)amino]urea]
affinity for S1PR2 (S1PR2): 18 nM | specificity for S1PR2 versus other S1PRs (S1PR2): 100 fold | retinal vascular patterning / FEVR retinal vascularization defects (Fzd4−/− mice): substantial restoration of normal retinal vascular patterning; also recorded: able to ameliorate FEVR retinal vascularization defects
